Experimental data from patent US20050043331A1, “Substituted 3-(2,5-disubstituted)pyridyl-4-aryl pyrroles for treating inflammatory diseases” (priority 2002, published 2005).

What follows are compounds tested on TNF-α (assay: In-vitro whole cell assay for TNF-α inhibition (LPS-stimulated PBMC, ELISA)). Conditions: TNF-α by ELISA.
Type: cell-based
Experimental: Freshly obtained venous blood was anticoagulated with heparin, diluted with an equal volume of phosphate buffered saline (“PBS”) and placed in a sterile tube or other container. Aliquots (30 mL) of this mixture were transferred to centrifuge tubes, which were underlaid with Ficoll-Hypaque (15 mL). The prepared tubes were centrifuged at 400×g, without braking, for 30 min at room temperature. Approximately ½ to ⅔ of the platelet layer above the mononuclear cell band was removed with a pipette. The majority of the mononuclear cell layer was carefully removed using a pipette and these PBMC's were diluted with PBS and spun at 600×g for 15 min. The resulting PBMC's were washed with another portion of PBS and spun at 400×g for 10 min at room temperature. The recovered pellets were diluted in low endotoxin RPMI/1% FCS culture medium, and gave a cell concentration of 0.5-2.0×10^6 PMBC/ mL. A small volume of the suspension was removed for counting on a hemocytometer and the remaining preparation was centrifuged at 200×g for 15 min at room temperature. The recovered pelleted PMBC's were resuspended in RPMI/1% FCS to a concentration of 1.67×10^6/mL.
To run the assay, the PBMC suspension (180 μL) was transferred to duplicate wells of a 96-well flat-bottom microtiter plate and incubated for 1 h at 37° C. A solution of test compound (10 μL: prepared at 20× the desired final concentration) was added to each well and the plate was incubated for 1 h at 37° C. A solution (10 μL) of LPS in RPMI/1% FCS (200 ng/mL) was added and the wells were incubated overnight at 37° C. The supernate (100 μL) was removed from each well and diluted with RPMI/1% FCS (400 μL). The samples were analyzed for TNF-α using a commercial ELISA kit (Genzyme).
`CCOC(=O)c1c(-c2ccc(F)cc2)c(-c2ccncc2)c(CCCO)n1C` [Cpd 17, 3-(4-Fluorophenyl)-5-(3-hydroxypropyl)-1-methyl-4-(4-pyridinyl)-1H-pyrrole-2-carboxylic acid ethyl ester] was tested, and the IC50 was 186 nM. `COC(=O)CCCn1c(NCCN2CCOCC2)c(-c2ccncc2)c(-c2ccc(F)cc2)c1C(=O)OC` [Cpd 23a] was tested, and the IC50 was 29 nM. Work on `CON(C)C(=O)c1c(-c2ccc(F)cc2)c(-c2ccncc2)cn1C` [Cpd 37, 3-(4-Fluorophenyl)-N-methoxy-N,1-dimethyl-4-(4-pyridinyl)-1H-pyrrole-2-carboxamide] yielded an IC50 of 5840 nM. `CC(=O)c1c(-c2ccc(F)cc2)c(-c2ccncc2)cn1C` [Cpd 39, 1-[3-(4-Fluorophenyl)-1-methyl-4-(4-pyridinyl)-1H-pyrrol-2-yl]ethanone] showed an IC50 of 597 nM. With `CC(O)c1c(-c2ccc(F)cc2)c(-c2ccncc2)cn1C` (stereo not drawn) [Cpd 40, 3-(4-Fluorophenyl)-[…], 1-dimethyl-4-(4-pyridinyl)-1H-pyrrole-2-methanol] the IC50 was 1450 nM. Work on `O=C1OCCn2cc(-c3ccncc3)c(-c3ccc(F)cc3)c21` [Cpd 46, 8-(4-Fluorophenyl)-3,4-dihydro-7-(4-pyridinyl)-1H-pyrrolo[2,1-c][1,4]oxazin-1-one] yielded an IC50 of 160 nM. `COC(=O)c1c(-c2ccc(F)cc2)c(-c2ccncc2)c(N2CCC(NC(=O)OC(C)(C)C)C2)n1C` (stereo not drawn) [Cpd 110] gave an IC50 of 1660 nM. Compound `Cn1c(C(O)c2ccccc2)c(-c2ccc(F)cc2)c(-c2ccncc2)c1N1CCNCC1` (stereo not drawn) [Cpd 117] has an IC50 of 660 nM. `COC(=O)c1c(-c2ccc(F)cc2)c(-c2ccncc2)c(NCCN2CCCC2)n1C` [Cpd 118] was tested, and the IC50 was 1390 nM. Work on `COC(=O)c1c(-c2ccc(F)cc2)c(-c2ccncc2)c(NC2CCN(Cc3ccccc3)CC2)n1C` [Cpd 120] yielded an IC50 of 1310 nM. `CCCCNCc1c(-c2ccncc2)c(-c2ccc(F)cc2)cn1C` [Cpd 123] gave an IC50 of 1080 nM. For `COC(=O)c1c(-c2ccc(F)cc2)c(-c2ccncc2)c(N2CCN(C(C)C)CC2)n1C` [Cpd 126], the IC50 was 1980 nM. In the case of `CCCN1CCN(c2c(-c3ccncc3)c(-c3ccc(F)cc3)c(C(=O)OC)n2C)CC1` [Cpd 127], the IC50 is reported as 901 nM. `COC(=O)c1c(-c2ccc(F)cc2)c(-c2ccncc2)c(N2CCN(CC3CCCCC3)CC2)n1C` [Cpd 130] showed an IC50 of 573 nM. In the case of `COC(=O)c1c(-c2ccc(F)cc2)c(-c2ccncc2)c(NCCNC(=O)OC(C)(C)C)n1C` [Cpd 132], the IC50 is reported as 1640 nM. `COC(=O)c1c(-c2ccc(F)cc2)c(-c2ccncc2)c(NCCNC(C)=O)n1C` [Cpd 135] was tested, and the IC50 was 1690 nM. Compound `COC(=O)c1c(-c2ccc(F)cc2)c(-c2ccncc2)c(NC(C)=O)n1C` [Cpd 142] has an IC50 of 1490 nM. `COC(=O)CCn1c(C#CCCO)c(-c2ccncc2)c(-c2ccc(F)cc2)c1C(=O)OC` [Cpd 150] showed an IC50 of 5280 nM. `CCCn1c(NCCN2CCOCC2)c(-c2ccncc2)c(-c2ccc(F)cc2)c1C(=O)OC` [Cpd 153] gave an IC50 of 589 nM. `COC(=O)c1c(-c2ccc(F)cc2)c(-c2ccncc2)c(NCCc2ccncc2)n1C` [Cpd 154] gave an IC50 of 145 nM. Compound `N#Cc1[nH]cc(-c2ccncc2)c1-c1ccc(F)cc1` [Cpd 158] has an IC50 of 47 nM. `COC(=O)c1c(-c2ccc(F)cc2)c(-c2ccncc2)c(N(C)CCN2CCSCC2)n1C` [Cpd 162] was tested, and the IC50 was 183 nM. Work on `COC(=O)c1c(-c2ccncc2)c(-c2ccc(F)cc2)c(N(C)CCN2CCOCC2)n1C` [Cpd 164] yielded an IC50 of 3510 nM. Compound `COC(=O)c1c(-c2ccc(F)cc2)c(-c2ccncc2)cn1CCO` [Cpd 165] has an IC50 of 692 nM. In the case of `COC(=O)c1c(-c2ccc(F)cc2)c(-c2ccncc2)c(Nc2ccc3c(c2)N(C(C)=O)CC3)n1C` [Cpd 166], the IC50 is reported as 650 nM. `Cn1c(C#N)c(-c2ccc(F)cc2)c(-c2ccncc2)c1NCCN1CCOCC1` [Cpd 171] showed an IC50 of 351 nM. `COC(=O)c1c(-c2ccc(F)cc2)c(-c2ccncc2)c(Nc2cccc(NC(C)=O)c2)n1C` [Cpd 174] gave an IC50 of 21 nM.
